ChEMBL document CHEMBL1142994, “Structure-based design, synthesis, and biological evaluation of potent and selective macrocyclic checkpoint kinase 1 inhibitors” (J Med Chem, 2007)
pEC50, pIC50, pKi: −log10 of the molar value.

What was measured:
[1] = molecular target: T1, Serine/threonine-protein kinase Chk1 (Homo sapiens, UniProt O14757); assay: Inhibition of recombinant Chk1
T1 sequence (O14757 whole entry): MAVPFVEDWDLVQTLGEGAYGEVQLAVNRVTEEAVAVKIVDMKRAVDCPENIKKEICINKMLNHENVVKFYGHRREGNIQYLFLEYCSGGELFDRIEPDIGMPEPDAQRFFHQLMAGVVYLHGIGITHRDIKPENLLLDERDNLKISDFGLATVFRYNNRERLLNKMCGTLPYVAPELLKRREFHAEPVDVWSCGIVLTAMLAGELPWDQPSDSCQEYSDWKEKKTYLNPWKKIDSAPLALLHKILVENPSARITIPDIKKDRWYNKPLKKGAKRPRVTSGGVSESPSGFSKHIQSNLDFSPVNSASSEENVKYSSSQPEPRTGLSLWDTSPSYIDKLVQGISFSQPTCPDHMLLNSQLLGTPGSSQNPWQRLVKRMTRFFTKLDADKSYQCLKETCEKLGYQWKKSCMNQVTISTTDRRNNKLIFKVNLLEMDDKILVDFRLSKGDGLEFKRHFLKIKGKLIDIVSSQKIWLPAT

HeLa [2] = assay: Cytotoxicity against HeLa cells in presence of doxorubicin by MTS assay; assay type: functional, cell-based, Homo sapiens
NCI-H1299 [3] = assay: Inhibition of accumulation of H1299 cells in G2/M phase in presence of doxorubicin by FACS assay; assay type: functional, cell-based, Homo sapiens
HeLa [4] = assay: Cytotoxicity against HeLa cells by MTS assay; assay type: functional, cell-based, Homo sapiens; settings: for pEC50: read-out: EC50
NCI-H1299 [5] = assay: Accumulation of H1299 cells in G2/M phase measured as cell cycle arrest by FACS assay; assay type: functional, cell-based, Homo sapiens
[6] = molecular target: T2, Calcium/calmodulin-dependent protein kinase type IV (Homo sapiens, UniProt Q16566); assay: Inhibition of Camk4
T2 sequence (Q16566 whole entry): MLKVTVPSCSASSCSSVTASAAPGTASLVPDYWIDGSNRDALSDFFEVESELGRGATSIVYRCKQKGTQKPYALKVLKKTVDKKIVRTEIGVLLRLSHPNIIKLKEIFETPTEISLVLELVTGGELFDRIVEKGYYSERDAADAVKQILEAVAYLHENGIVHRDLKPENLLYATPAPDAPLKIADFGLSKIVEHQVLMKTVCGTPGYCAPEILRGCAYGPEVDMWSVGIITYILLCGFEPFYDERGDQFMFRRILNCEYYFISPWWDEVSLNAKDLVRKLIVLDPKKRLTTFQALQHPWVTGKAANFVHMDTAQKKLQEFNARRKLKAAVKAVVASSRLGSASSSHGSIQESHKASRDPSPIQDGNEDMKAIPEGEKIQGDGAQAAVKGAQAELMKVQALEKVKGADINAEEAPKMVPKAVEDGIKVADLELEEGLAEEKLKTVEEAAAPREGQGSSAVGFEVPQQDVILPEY

[7] = molecular target: T3, Serine/threonine-protein kinase Sgk1 (Homo sapiens, UniProt O00141); assay: Inhibition of SGK
T3 sequence (O00141 whole entry): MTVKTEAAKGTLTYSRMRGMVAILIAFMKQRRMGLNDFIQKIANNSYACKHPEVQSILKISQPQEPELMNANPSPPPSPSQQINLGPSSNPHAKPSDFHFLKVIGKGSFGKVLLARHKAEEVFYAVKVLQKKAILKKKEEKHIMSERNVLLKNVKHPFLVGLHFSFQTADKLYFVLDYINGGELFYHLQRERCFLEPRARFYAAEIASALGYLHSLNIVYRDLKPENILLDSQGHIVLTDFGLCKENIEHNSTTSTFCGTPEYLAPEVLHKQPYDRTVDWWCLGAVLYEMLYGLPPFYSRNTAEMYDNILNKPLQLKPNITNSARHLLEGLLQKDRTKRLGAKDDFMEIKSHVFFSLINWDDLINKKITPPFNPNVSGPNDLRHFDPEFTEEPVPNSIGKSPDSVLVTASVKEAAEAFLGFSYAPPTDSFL

[8] = molecular target: T4, Mitogen-activated protein kinase 13 (Homo sapiens, UniProt O15264); assay: Inhibition of p38 delta
T4 sequence (O15264 whole entry): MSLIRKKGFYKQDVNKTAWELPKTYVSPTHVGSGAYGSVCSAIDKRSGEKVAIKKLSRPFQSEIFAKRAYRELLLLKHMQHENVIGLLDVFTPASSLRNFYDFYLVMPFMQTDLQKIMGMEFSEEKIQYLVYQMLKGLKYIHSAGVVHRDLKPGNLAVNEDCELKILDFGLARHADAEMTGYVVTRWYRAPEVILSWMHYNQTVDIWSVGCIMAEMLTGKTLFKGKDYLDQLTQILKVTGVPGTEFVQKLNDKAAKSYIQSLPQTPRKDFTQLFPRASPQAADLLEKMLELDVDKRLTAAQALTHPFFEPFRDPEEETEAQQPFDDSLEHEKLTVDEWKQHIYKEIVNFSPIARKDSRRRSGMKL

## CC(O)C#Cc1cc2c(cc1Cl)NC(=O)Nc1cnc(C#N)c(n1)OCCCCCO2 (stereo not drawn)
[1]
  pIC50: 7.59

## N#Cc1ncc2nc1OCCCCCOc1cc(CC(O)CO)c(Cl)cc1NC(=O)N2 (stereo not drawn)
[1]
  pIC50: 8.30

## CCN(CC)CC#Cc1cc2c(cc1Cl)NC(=O)Nc1cnc(C#N)c(n1)OCCCCCO2
[1]
  pIC50: 8.70

## CN(C)CCOc1cc2c(cc1Cl)NC(=O)Nc1cnc(C#N)c(n1)OCCCCCO2
[1]
  pIC50: 9.00

## CC(C)CCOc1cc2c(cc1Cl)NC(=O)Nc1cnc(C#N)c(n1)OCCCCCO2
[1]
  pIC50: 5.97

## N#Cc1ncc2nc1OCCCCCOc1cc(C#CCO)c(Cl)cc1NC(=O)N2
[1]
  pIC50: 8.00

## N#Cc1ncc2nc1OCCCCCOc1cc(OCCn3ccnc3)c(Cl)cc1NC(=O)N2
[1]
  pIC50: 8.52

## N#Cc1ncc2nc1OCCCCCOc1ccc(Cl)cc1NC(=O)N2
HeLa [2]; Homo sapiens, HeLa
  pEC50: 5.52
NCI-H1299 [3]; Homo sapiens, NCI-H1299
  pEC50: 5.57
[1]
  pIC50: 8.15
HeLa [4]
  EC50: 57600 nM
NCI-H1299 [5]; Homo sapiens, NCI-H1299
  pEC50: < 5.00

## CC(C)Nc1cc2c(cc1Cl)NC(=O)Nc1cnc(C#N)c(n1)OCCCCCO2
[1]
  pIC50: 7.96

## N#Cc1ncc2nc1OCCCCCOc1cc(NCc3ccncc3)c(Cl)cc1NC(=O)N2
HeLa [2]; hela
  pEC50: 5.85
NCI-H1299 [3]; nci-h1299
  pEC50: 5.92
[1]
  pIC50: 7.89
HeLa [4]; hela
  pEC50: < 4.23
NCI-H1299 [5]; nci-h1299
  pEC50: < 5.00

## CN(C)CC(=O)Nc1cc2c(cc1Cl)NC(=O)Nc1cnc(C#N)c(n1)OCCCCCO2
[1]
  pIC50: 9.00

## CCNc1cc2c(cc1Cl)NC(=O)Nc1cnc(C#N)c(n1)OCCCCCO2
[1]
  pIC50: 8.40

## N#Cc1ncc2nc1OCCCCCOc1cc(OCc3cccnc3)c(Cl)cc1NC(=O)N2
[1]
  pIC50: 8.05

## N#Cc1ncc2nc1OCCCCCOc1cc(OCc3ccccn3)c(Cl)cc1NC(=O)N2
[1]
  pIC50: 7.20

## N#Cc1ncc2nc1OCCCCCOc1cc(NCCO)c(Cl)cc1NC(=O)N2
[1]
  pIC50: 8.70

## N#Cc1ncc2nc1OCCCCCOc1cc(NCc3ccccc3)c(Cl)cc1NC(=O)N2
[1]
  pIC50: 6.58

## CC(=O)Nc1cc2c(cc1Cl)NC(=O)Nc1cnc(C#N)c(n1)OCCCCCO2
[1]
  pIC50: 8.15

## CCOc1cc2c(cc1Cl)NC(=O)Nc1cnc(C#N)c(n1)OCCCCCO2
[1]
  pIC50: 8.22

## N#Cc1ncc2nc1OCCCCCOc1cc(OCc3ccncc3)c(Cl)cc1NC(=O)N2
[1]
  pIC50: 7.92

## N#Cc1ncc2nc1OCCCCCOc1cc(NCc3cncs3)c(Cl)cc1NC(=O)N2
HeLa [2]; Homo sapiens, HeLa
  pEC50: 5.92
NCI-H1299 [3]; Homo sapiens, NCI-H1299
  pEC50: 6.96
[1]
  pIC50: 8.22
HeLa [4]; Homo sapiens, HeLa
  pEC50: < 4.23
NCI-H1299 [5]; Homo sapiens, NCI-H1299
  pEC50: < 5.00

## N#Cc1ncc2nc1OCCCCCOc1cc(CCCO)c(Cl)cc1NC(=O)N2
HeLa [2]; Homo sapiens, HeLa
  pEC50: 6.07
[6]
  pKi: < 5.00
NCI-H1299 [3]; Homo sapiens, NCI-H1299
  pEC50: 6.72
HeLa [4]; Homo sapiens, HeLa
  pEC50: 4.54
[7]
  pKi: < 5.00
NCI-H1299 [5]; Homo sapiens, NCI-H1299
  pEC50: < 5.00

## CS(=O)(=O)Nc1cc2c(cc1Cl)NC(=O)Nc1cnc(C#N)c(n1)OCCCCCO2
HeLa [2]; Homo sapiens, HeLa
  pEC50: 5.57
[6]
  pKi: < 5.00
NCI-H1299 [3]; Homo sapiens, NCI-H1299
  pEC50: 5.80
HeLa [4]; Homo sapiens, HeLa
  pEC50: < 4.23
[7]
  pKi: < 5.00
[8]
  pKi: < 5.00
NCI-H1299 [5]; Homo sapiens, NCI-H1299
  pEC50: < 5.00

## N#Cc1ncc2nc1OCCCCCOc1cc(N3CCCCC3)c(Cl)cc1NC(=O)N2
[1]
  pIC50: 6.86

## O=C1Nc2cncc(n2)OCCCCCOc2ccc(Cl)cc2N1
HeLa [2]; Homo sapiens, HeLa
  pEC50: 4.42
NCI-H1299 [3]; Homo sapiens, NCI-H1299
  pEC50: 5.12
[1]
  pIC50: 8.00
HeLa [4]
  EC50: >59000 nM
NCI-H1299 [5]; Homo sapiens, NCI-H1299
  pEC50: < 5.00

## CCCCNc1cc2c(cc1Cl)NC(=O)Nc1cnc(C#N)c(n1)OCCCCCO2
[1]
  pIC50: 7.82

## N#Cc1ncc2nc1OCCCCCOc1cc(NCc3ccsc3)c(Cl)cc1NC(=O)N2
[1]
  pIC50: 6.79

## N#Cc1ncc2nc1OCCCCCOc1cc(NC(=O)CCNC3CCCC3)c(Cl)cc1NC(=O)N2
[1]
  pIC50: 8.70

## N#Cc1ncc2nc1OCCCCCOc1cc(N(CCO)CCO)c(Cl)cc1NC(=O)N2
[1]
  pIC50: 8.40

## CNc1cc2c(cc1Cl)NC(=O)Nc1cnc(C#N)c(n1)OCCCCCO2
[1]
  pIC50: 8.70

## CC(C)Oc1cc2c(cc1Cl)NC(=O)Nc1cnc(C#N)c(n1)OCCCCCO2
[1]
  pIC50: 7.89

## CC(C)CNc1cc2c(cc1Cl)NC(=O)Nc1cnc(C#N)c(n1)OCCCCCO2
[1]
  pIC50: 7.77

## N#Cc1ncc2nc1OCCCCCOc1cc(OCCCO)c(Cl)cc1NC(=O)N2
[6]
  pKi: < 5.00
[7]
  pKi: < 5.00
[8]
  pKi: < 5.00

## N#Cc1ncc2nc1OCCCCCOc1cc(OCCCN)c(Cl)cc1NC(=O)N2
[1]
  pIC50: 9.00

## N#Cc1ncc2nc1OCCCCCOc1cc(NCc3cccnc3)c(Cl)cc1NC(=O)N2
HeLa [2]; hela
  pEC50: 5.80
NCI-H1299 [3]; nci-h1299
  pEC50: 6.48
[1]
  pIC50: 7.92
HeLa [4]; hela
  pEC50: < 4.23
NCI-H1299 [5]; nci-h1299
  pEC50: < 5.00

## N#Cc1ncc2nc1OCCCCCOc1cc(N)c(Cl)cc1NC(=O)N2
HeLa [2]; Homo sapiens, HeLa
  pEC50: 6.37
NCI-H1299 [3]; Homo sapiens, NCI-H1299
  pEC50: 6.62
[1]
  pIC50: 8.52
HeLa [4]; Homo sapiens, HeLa
  pEC50: < 4.23
NCI-H1299 [5]; Homo sapiens, NCI-H1299
  pEC50: 5.12

## COCCOc1cc2c(cc1Cl)NC(=O)Nc1cnc(C#N)c(n1)OCCCCCO2
[1]
  pIC50: 8.30

## N#Cc1ncc2nc1OCCCCCOc1cc(NCc3cnco3)c(Cl)cc1NC(=O)N2
[1]
  pIC50: 8.15

## N#Cc1ncc2nc1OCCCCCCOc1ccc(Cl)cc1NC(=O)N2
[1]
  pIC50: 7.55

## CC(C)CCCOc1cc2c(cc1Cl)NC(=O)Nc1cnc(C#N)c(n1)OCCCCCO2
[1]
  pIC50: < 5.00

## N#Cc1ncc2nc1OCCCCOc1ccc(Cl)cc1NC(=O)N2
HeLa [2]; Homo sapiens, HeLa
  pEC50: 5.51
[1]
  pIC50: 8.22
HeLa [4]
  EC50: 57600 nM
NCI-H1299 [5]; Homo sapiens, NCI-H1299
  pEC50: < 5.00

## Cn1cncc1CNc1cc2c(cc1Cl)NC(=O)Nc1cnc(C#N)c(n1)OCCCCCO2
[1]
  pIC50: 8.70

## N#Cc1ncc2nc1OCCCCCOc1cc(O)c(Cl)cc1NC(=O)N2
HeLa [2]; Homo sapiens, HeLa
  pEC50: 5.72
[1]
  pIC50: 8.22
HeLa [4]; Homo sapiens, HeLa
  pEC50: < 4.23

## COCCOCCOc1cc2c(cc1Cl)NC(=O)Nc1cnc(C#N)c(n1)OCCCCCO2
[1]
  pIC50: 8.05

## CC(C)(O)C#Cc1cc2c(cc1Cl)NC(=O)Nc1cnc(C#N)c(n1)OCCCCCO2
[1]
  pIC50: 6.96

## CN(C)c1cc2c(cc1Cl)NC(=O)Nc1cnc(C#N)c(n1)OCCCCCO2
[1]
  pIC50: 8.15

## N#Cc1ncc2nc1OCCCCCOc1cc(OCCO)c(Cl)cc1NC(=O)N2
HeLa [2]; Homo sapiens, HeLa
  pEC50: 5.52
NCI-H1299 [3]; Homo sapiens, NCI-H1299
  pEC50: 6.15
HeLa [4]; Homo sapiens, HeLa
  pEC50: < 4.23
NCI-H1299 [5]; Homo sapiens, NCI-H1299
  pEC50: < 5.00

## CCN(CC)c1cc2c(cc1Cl)NC(=O)Nc1cnc(C#N)c(n1)OCCCCCO2
[1]
  pIC50: 6.61

## N#Cc1ncc2nc1OCCCCCOc1cc(NCc3c[nH]cn3)c(Cl)cc1NC(=O)N2
[1]
  pIC50: 6.64
